Drawing on ChEMBL document CHEMBL3638907, “Substituted pyrazolo[1,5-a]pyrimidine compounds as Trk kinase inhibitors” (2014), this text covers IC50 for two molecules.

SMILES strings stand for the structures.

The target in this assay is Tyrosine-protein kinase JAK2 (Homo sapiens, UniProt O60674). The assay can be described thus: Inhibition Assay: Compounds of Formula I were screened for their ability to inhibit Jak2 using the general enzyme inhibition assay method, in which the assay mixture contained 500 μM ATP, 10 μM Omnia Y7 peptide (Catalog # IVGN KNZ3071C, Invitrogen Corporation, Carlsbad, Calif.) and 4 nM Jak2 in a total volume of 20 μL. […] (catalog # IVGN PV4210).
Tyrosine-protein kinase JAK2, sequence (O60674 whole entry): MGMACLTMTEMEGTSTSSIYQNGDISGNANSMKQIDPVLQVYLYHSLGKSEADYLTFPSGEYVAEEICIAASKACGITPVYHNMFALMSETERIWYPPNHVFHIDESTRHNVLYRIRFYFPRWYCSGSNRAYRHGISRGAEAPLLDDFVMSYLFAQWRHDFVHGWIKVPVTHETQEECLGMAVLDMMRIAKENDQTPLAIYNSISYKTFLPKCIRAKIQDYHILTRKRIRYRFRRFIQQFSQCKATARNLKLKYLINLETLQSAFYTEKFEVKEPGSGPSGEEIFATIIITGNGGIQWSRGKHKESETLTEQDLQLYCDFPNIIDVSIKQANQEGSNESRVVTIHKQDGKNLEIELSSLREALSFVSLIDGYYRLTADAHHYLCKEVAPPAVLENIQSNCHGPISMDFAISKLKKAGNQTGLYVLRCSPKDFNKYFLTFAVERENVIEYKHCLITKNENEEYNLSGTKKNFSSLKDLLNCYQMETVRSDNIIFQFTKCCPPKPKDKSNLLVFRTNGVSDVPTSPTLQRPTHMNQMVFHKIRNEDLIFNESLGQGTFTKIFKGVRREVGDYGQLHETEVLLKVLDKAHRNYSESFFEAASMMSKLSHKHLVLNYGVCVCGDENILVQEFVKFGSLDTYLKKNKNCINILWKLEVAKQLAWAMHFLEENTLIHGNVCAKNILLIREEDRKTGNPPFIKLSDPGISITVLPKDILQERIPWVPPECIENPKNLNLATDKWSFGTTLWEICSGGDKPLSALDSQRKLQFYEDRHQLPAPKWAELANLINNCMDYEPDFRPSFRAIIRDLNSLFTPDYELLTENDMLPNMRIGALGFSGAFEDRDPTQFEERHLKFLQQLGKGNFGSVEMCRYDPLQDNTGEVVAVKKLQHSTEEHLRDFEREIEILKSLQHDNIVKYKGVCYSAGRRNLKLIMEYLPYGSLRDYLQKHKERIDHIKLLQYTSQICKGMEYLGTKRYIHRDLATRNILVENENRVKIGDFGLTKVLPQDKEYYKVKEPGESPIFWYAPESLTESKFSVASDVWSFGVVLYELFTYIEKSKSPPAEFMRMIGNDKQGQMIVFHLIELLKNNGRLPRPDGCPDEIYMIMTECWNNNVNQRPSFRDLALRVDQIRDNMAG

`COCCOc1ccc(F)cc1[C@H]1CCCN1c1ccn2ncc(C(=O)NC3CC3)c2n1`: the IC50 (commonly the point on the concentration scale where inhibition reaches its midpoint) turned out to be 472 nM.

For the molecule `COc1ncc(F)cc1[C@H]1CCCN1c1ccn2ncc(C(=O)NCCCNC(=O)OC(C)(C)C)c2n1`, the IC50 is more than 1000 nM.
